Experimental data: patent publication US8703790B2, “Bis [O-(14-benzoylaconine-8-yl)] esters” (priority 2008, dated 2014)

Legend:
MCF-7 (breast cancer) = assay: In vitro cytotoxicity test (MTT) against human tumour cell line MCF-7; assay type: cell-based; conditions: MCF-7, 24 h contact, 48 h re-growth
Procedure: Human tumour cell lines A549 (lung cancer), HCT-15 (colon cancer) and MCF-7 (breast cancer) have been obtained from the Developmental Therapeutics Program of the National Cancer Institute (Rockville, Md., USA). Cells were routinely grown with RPMI 1640 medium supplemented with 10% foetal calf serum, both obtained from Biochrom AG (Berlin, Germany). They were grown on Petri dishes (Nunc, Denmark) at 37° C. in a humidified atmosphere containing 5% CO2. Cells were replicated every 4 days and the medium changed once in-between.
Cytotoxicity has been evaluated on exponentially growing cells grown for 24 h in presence of the compounds to be tested. Briefly, 4000 cells were seeded in 96-well plates with 200 μL of complete medium; 24 hours later the medium was supplemented with a series of different concentrations of compounds and the contact maintained for 24 h. Compounds were dissolved in pure water and sterilised using polycarbonate membrane filters of 0.22 μm (Millipore, Molsheim, France). The cells were then allowed to re-grow for 48 hours; viable and metabolically active cells were quantitatively estimated by coloration with the MTT dye (1-(4,5-dimethylthyazol-2-yl)-3,5-diphenylformazan), Sigma-Aldrich Chimie, Saint-Quentin-Fallavier, France). The amount of substance allowing a 50% decrease in cell numbers is indicative of the cytotoxicity and represents the IC50 of compound.

[1] = Partition coefficient log D (pH 7.4), micro HPLC method, n-octanol/phosphate buffer; assay type: physicochemical; conditions: n-octanol/phosphate buffer pH 7.4
Procedure: The relative log D (pH 7.4) in this study was assessed by the micro HPLC method which is disclosed in A microscale HPLC method for the evaluation of octanol-water partition coefficients in a series of new 2-amino-2oxazolines Pehourcq, F.; Thomas, J.; Jarry, C., J. Liq. Chromatogr. Relat. Technol. (2000), 23, 443-453.
These determinations were performed with a chromatographic apparatus (Spectra Series, San Jose, USA). A reversed phase column was used: a Stability RP18 (4.6×150 mm; 5 μm particle size) with a mobile phase consisting of acetonitrile (+1‰ trifluoroacetic acid)−water (+1‰ trifluoroacetic acid) (40:60 v/v).
The compound was partitioned between n-octanol (HPLC grade) and phosphate buffer (pH=7.4). Octanol was presatured with buffer, and conversely. An amount of 1 mg of the compound was dissolved in an adequate volume of methanol in order to achieve 1 mg/mL stock solutions. Then, an appropriate aliquot of this methanolic solution was dissolved in buffer to obtain final concentration of 100 μg/mL. Under the above described chromatographic conditions, 20 μL of this aqueous phase was injected into the chromatograph, leading to the determination of a peak area before partitioning (W0).
In screw-capped tubes, 2000 μL of the aqueous phase (Vag) was then added to 10 μL of n-octanol (Voct) at pH=7.4. […] Log D was calculated from the formula: log D=log [(W0−W1)Vaq/W1Voct].

HCT-15 = assay: Cell cycle arrest, propidium iodide flow cytometry, HCT-15; assay type: cell-based, human
Procedure: (§1) 10^6 Cells of A549, HCT-15 and MCF-7 cell lines have been seeded in Petri dishes with RPMI-1640 medium. 24 h later, SDD has been dissolved in water at a concentration of 20 μM and was directly added to the culture medium. Contact was maintained for 72 h. Then, cells have been detached by trypsinization, collected and rinsed by PBS and counted on hemocytometer. Cells were centrifuged for 5 min at 1500 rpm, then resuspended in a defined volume of PBS to obtain 2.5×10^6 cell/mL. 100 μL of cell suspension was digested to nuclei by trypsin for 10 min. Then, a solution containing trypsin inhibitor and RNAse was added to cell suspension and left for 10 min. Finally, cells were stained by propidium iodide and were analysed by flow-cytometry apparatus. Distribution of cells among the different phases of the cycle was determined by the procedure disclosed in: A detergent-trypsin method for preparation of nuclei for flow cytometric DNA analysis. Vindelov, L.; Christensen, I.; Nissen, N.; Cytometry (1983), 3, 323-327.
(§2) • G0G1: cell in the phase of GOG1 • G2M: cells in the phase of G2M • S: cells in the phase of DNA synthesis • Sub G1: apoptotic cells • SUP G2M: diploidic cells

MCF-7 = assay: Cell cycle arrest, propidium iodide flow cytometry, MCF-7; assay type: cell-based, human
Procedure: as §1, §2

[2] = HCT-15, SDD 20 μM, 72 h, percentage of total cell population
[3] = MCF-7, SDD 20 μM, 72 h, percentage of total cell population

CCN1C[C@]2(COC)[C@H](O)C[C@H](OC)[C@]34C1[C@H]([C@H](OC)[C@H]23)[C@]1(OC(=O)CCCCCCC(=O)O[C@]23[C@H]5[C@@H](OC(=O)c6ccccc6)[C@](O)(C[C@H]5[C@@]56C7[C@@H]2[C@H](OC)[C@@H]5[C@](COC)(CN7CC)[C@H](O)C[C@@H]6OC)[C@@H](OC)[C@@H]3O)[C@H]2[C@@H](OC(=O)c3ccccc3)[C@](O)(C[C@H]24)[C@@H](OC)[C@@H]1O [SDD, bis[O-(14-benzoylaconine-8-yl)]-suberate]
IC50 (MCF-7 (breast cancer)): 3.7 µM | log D (pH 7.4) [1]: 2.86 | accumulation of cells in the G2M and S phases (HCT-15; HCT-15, 20 μM): significant accumulation | numbers of apoptotic cells (Sub G1) (HCT-15; HCT-15, 20 μM): significantly increased | increase of number of cells arrested at S phase as compared to control (HCT-15; HCT-15, SDD 20 μM): more than 100% | increase of number of cells in the G2M phase as compared to control (HCT-15; HCT-15, SDD 20 μM): 75% | ALL % (HCT-15; [2]): 100% | G0G1 % (HCT-15; [2]): 30.67% | G2M % (HCT-15; [2]): 15.72% | S % (HCT-15; [2]): 26.35% | SUP G2M % (diploidic cells) (HCT-15; [2]): 2.59% | SubG1 % (apoptotic cells) (HCT-15; [2]): 23.65% | Percentage of survival cells, G0G1 % (HCT-15; HCT-15, SDD, survival cells): 42.16% | Percentage of survival cells, G2M % (HCT-15; HCT-15, SDD, survival cells): 21.61% | Percentage of survival cells, S % (HCT-15; HCT-15, SDD, survival cells): 36.23% | accumulation of cells in the G2M and S phases (MCF-7; MCF-7, 20 μM): moderate accumulation | ALL % (MCF-7; [3]): 100% | G0G1 % (MCF-7; [3]): 58.73% | G2M % (MCF-7; [3]): 16.96% | S % (MCF-7; [3]): 21.44% | SUP G2M % (diploidic cells) (MCF-7; [3]): 1.72% | SubG1 % (apoptotic cells) (MCF-7; [3]): 2.05% | cell distribution in the cycle (MCF-7; MCF-7, SDD concentration 5 times higher than IC50): not altered | Percentage of survival cells, G0G1 % (MCF-7; MCF-7, SDD, survival cells): 60.46% | Percentage of survival cells, G2M % (MCF-7; MCF-7, SDD, survival cells): 17.46% | Percentage of survival cells, S % (MCF-7; MCF-7, SDD, survival cells): 22.08%
